{
  "source": "patent US20220025324A1",
  "about": "“METHODS OF PRODUCING VENOUS ANGIOBLASTS AND SINUSOIDAL ENDOTHELIAL CELL-LIKE CELLS AND COMPOSITIONS THEREOF” (University Health Network, priority 2018, published 2022)",
  "assay_type_in_all_cases": "cell-based, human",
  "key": {"[1]": {"test_system": "tdRFP+ CD31+ CD32+ LYVE1+ cells", "assay": "Fenestration by scanning electron microscopy after latrunculin A stimulation", "source_text": "FIG. 11: hPSC-Derived, In Vivo Matured LSECs are Fenestrated and Scavenge E. coli Bioparticles. (11A) Representative scanning electron microscopic images of primary human insitu vasculature imaged on the cut surface of fresh fixed liver tissue. LSECs, terminal portal venous endothelium and hepatic artery endothelium are shown for comparison of presence (indicated by white arrows) or absence of fenestrations. (11B) Representative scanning electron microscopic images of day 8 venous angioblast-derived, in vivo-matured, FACS-isolated based on indicated marker panels, overnight-cultured, treated for 30 minutes with or without fenestration (white arrows) stimulating 0.1 μg/ml Latrunculin A, fixed and processed for SEM. Imaging conditions and scale bar are indicated on each image. (11C) Quantification of fenestrated cells (>10 fenestrations arranged in a defined sieve plate cluster), endothelial cells (smooth edged cells with angiogenic lateral sprouts free from fibroblast-like adhesions), non-endothelial cells (fibroblast-like cells and rounded cells) was performed manually on the indicated numbers of cells from a total of at least 4 independent replicates pooling the data. Comparative in vitro derived cells including venous LSEC-LCs sorted as CD31+CD32+LVYE1+ on day 18, replated and cultured for an additional 10 days in addition to standard multi-donor derived HUVECs that were also quantified with and without Latrunculin A stimulation. (11D-11E) Quantification of fenestration size (longest diameter) in (11C) primary human LSECs in situ (black), venous angioblast-derived, in vivo matured and isolated LSECs with (white) and without (grey) latrunculin A stimulation. (11E) Quantification of surface area of LSECs covered by fenestrations before and after latrunculin stimulation. Error bars represent SEM. […]"}, "[2]": {"test_system": "venous angioblast-derived populations", "assay": "LSEC-LC specification of venous angioblast-derived populations, RT-qPCR of LSEC associated markers", "details": "for expression of LSEC associated markers (LYVE1, STAB2, FCGR2B, F8): treated every 2 days for 4 days, RT-qPCR of bulk populations", "description": "(3A) Schematic of EB-based hPSC-derived day 4 mesoderm differentiation to venous angioblasts, endothelial cells and LSEC-like cells (LSEC-LCs). […] For all qRT-PCR analysis, expression values are normalized to levels of the housekeeping gene TBP. Error bars represent SEM.\nThe resulting bulk populations were analyzed for expression of LSEC associated markers by RT-qPCR (FIG. 3B). Based on immunofluorescence (Strauss et al., 2017), flow cytometry (Fomin et al., 2013), bulk RNA-seq (Shahani et al., 2014), and recent single cell RNA-seq of human liver (MacParland et al., 2018) studies, human LSECs are distinguished by the co-expression of surface receptors, secreted proteins, and transcription factors including, LYVE1, CD14, CD32B (FCGR2B), CD36, CD54 (ICAM1), CD73, CD144, CD206 (MRC1), STAB1, STAB2, CLEC1B, PLAVP, GATA4 and F8 among others. Additionally, they express lower levels of canonical vascular markers such as CD31(PECAM1), CD34, CD105, CD309 (KDR), and VWF than portal arterial and venous endothelial cells. As a candidate marker set we focused the analysis on expression of scavenger receptors LYVE1, STAB2, CD32B/FCGR2B, F8, and VWF."}, "[3]": {"test_system": "hPSC-derived day 4 mesoderm", "assay": "VEGF and bFGF titration on day 4 mesoderm cultures, day 6 flow cytometry for CD34+ angioblast subpopulations", "description": "(1A) Schematic of EB-based hPSC differentiation to venous angioblasts. (1B) Heatmap comparing kinetic gene expression profiles of day 0-8 bulk EB populations and day 8 CD34+ MACS enriched angioblasts following venous differentiation (day 4-8 10 ng/ml VEGFA, 30 ng/ml bFGF 10 μm GSI) as in (1A). High (dark) and low (light) expression levels are indicated for each gene. (1C) Representative flow cytometric analysis of day 4 KDR+CD56+CD235a-mesodermal cells and day 8 CD34+CD31 low venous angioblasts before and after MACS enrichment. […] For all qRT-PCR analysis, expression values are normalized to levels of the housekeeping gene TBP. Error bars represent SEM.\nPrevious work from our group (Ditadi et al., 2015) and others (Zhang et al., 2017), has shown that VEGF, bFGF, NOTCH signaling play a role in the specification of arterial and venous vascular fates in hPSC differentiation cultures. The effects of VEGF signaling in promoting arterial and venous development were assessed. To address this, different concentrations of VEGF (0 to 100 ng/ml) were added to day 4 cultures that contained low amounts of bFGF (5 ng/ml) and the resulting day 6 populations were analyzed for the presence of CD34^+CD31^+ vascular cells and CD184^+CD73^lowCD34^+ and CD184^−CD73^+CD34^+ populations that we have previously shown contain progenitors specified to arterial and venous fates respectively."}, "arterial and venous ECs": {"test_system": "arterial and venous ECs", "assay": "IOX2 treatment of arterial and venous LSEC-LCs (HIF1a signalling), flow cytometry and qRT-PCR", "source_text": "FIG. 6: CD32B Expression is Regulated by Hypoxia/HIFla Signalling. […] (6B) Representative flow cytometric analysis of normoxic cultured CD31+ arterial LSEC-LCs treated with DMSO or IOX2 at increasing doses (days 12-16). (6C) qRT-PCR analysis of LSEC markers in day 16 arterial and venous LSEC-LCs cultured under normoxia conditions treated with DMSO or increasing IOX2 doses for 4 days (ANOVA with Bonferroni test, *p<0.05, comparing arterial and venous cells at give IOX2 doses). (6D) Representative flow cytometric analysis of day 16 arterial and venous CD31+ LSEC-LCs cultured under normoxic and hypoxic conditions with and without IOX2. For all qRT-PCR analysis, expression values are normalized to levels of the housekeeping gene TBP. Error bars represent SEM.\nTo further investigate the role of oxygen on LSEC marker expression, we next interrogated the HIFI a signaling pathway as a probable mechanistic regulator of EC gene expression."}, "[4]": {"details": "tdRFP+ CD31+ CD32+ LYVE1+ cells, 30 minutes stimulation"}, "[5]": {"details": "bFGF up to 30 ng/ml with VEGF 100 ng/ml, days 4-6"}, "[6]": {"details": "arterial and venous ECs, normoxia, 4 days, qRT-PCR"}},
  "data": [
    {"molecule": "C/C1=C/C(=O)O[C@@H]2C[C@@H](CC[C@H](C)/C=C\\C=C\\CC1)O[C@@](O)([C@@H]1CSC(=O)N1)C2", "note": "[latrunculin A]", "values": [
      {"measurement": "induction of fenestrations", "setting": "[1]; HUVECs and extended culture venous LSEC-LCs", "result": "nor were they able to be induced to form fenestrations"},
      {"measurement": "cell surface covered by stimulated fenestrations", "setting": "[1]; [4]", "result": "approximately 40%"},
      {"measurement": "size of the fenestration type that accounts for the increase", "setting": "[1]; [4]", "result": "~60", "unit": "nm"}
    ]},
    {"molecule": "NC(=O)c1ccc(-c2nc(-c3ccc4c(c3)OCO4)c(-c3ccccn3)[nH]2)cc1", "note": "[SB431542, 4-(4-(benzo[d][1,3]dioxol-5-yl)-5-(pyridin-2-yl)-1H-imidazol-2-yl)benzamide]", "values": [
      {"measurement": "expression of LSEC associated markers (LYVE1, STAB2, FCGR2B, F8)", "setting": "[2]", "result": "induced the expression of STAB2 and FCGR2B but not LYVE1"}
    ]},
    {"molecule": "bFGF: bFGF (also referred to as FGF2), growth factor", "values": [
      {"measurement": "size of the CD34+CD184+CD73low subpopulation", "setting": "[3]; [5]", "result": "decrease"},
      {"measurement": "size of the CD34+CD184-CD73- subpopulation", "setting": "[3]; [5]", "result": "increase"},
      {"measurement": "size of the total CD34+ population", "setting": "[3]; [5]", "result": "modest increase"}
    ]},
    {"molecule": "VEGF", "values": [
      {"measurement": "bias of CD34+ cells to arterial or venous subpopulation", "setting": "[3]; 100 ng/ml VEGF, 5 ng/ml bFGF, day 6", "result": "predominantly CD184^+CD73^low arterial-like population"},
      {"measurement": "frequency of CD34+ cells", "setting": "[3]; VEGF 0 to 100 ng/ml added to day 4 cultures with 5 ng/ml bFGF, day 6", "result": "significant and dose dependant increase"}
    ]},
    {"molecule": "O=C(O)CNC(=O)c1c(O)c2ccccc2n(Cc2ccccc2)c1=O", "note": "[IOX2]", "values": [
      {"measurement": "conversion of CD31+ ECs to LYVE1+CD32+ LSEC-LCs", "setting": "arterial and venous ECs; 4-day application under hypoxic conditions, by day 16", "result": "highly efficient conversion"},
      {"measurement": "CD32 protein", "setting": "arterial and venous ECs; CD31+LYVE1+ arterial ECs under elevated oxygen conditions, increasing doses, days 12-16", "result": "dose dependant upregulation"},
      {"measurement": "FCGR2B and F8 expression", "setting": "arterial and venous ECs; [6]", "result": "upregulated"},
      {"measurement": "LYVE1 expression", "setting": "arterial and venous ECs; [6]", "result": "significantly downregulated"},
      {"measurement": "STAB2 expression", "setting": "arterial and venous ECs; [6]", "result": "did not change"}
    ]},
    {"molecule": "VEGFC: VEGFC growth factor, 0 or 100 ng/ml (protein, UniProt P49767 112-227, looked up) Vascular endothelial growth …: AHYNTEILKSIDNEWRKTQCMPREVCIDVGKEFGVATNTFFKPPCVSVYRCGGCCNSEGLQCMNTSTSYLSKTLFEITVPLSQGPKPVTISFANHTSCRCMSKLDVYRQVHSIIRR", "values": [
      {"measurement": "expression of lymphatic markers PROX1 and FLT4", "setting": "[2]; VEGFC 100 ng/ml, 4 days, RT-qPCR", "result": "increased"},
      {"measurement": "expression of LSEC associated markers (LYVE1, STAB2, FCGR2B, F8)", "setting": "[2]", "result": "modestly enhance the expression of some LSEC markers"}
    ]}
  ]
}
